Experimental data from patent US20090186915A1, “Compositions and methods for treatment of glioblastoma, gliosarcoma, NSCLC, and head and neck cancer” (Unibioscreen S. A., priority 2006, published 2009).
Where two headings read alike, the source gives them in different places.

Experiments:
[1] = test system: human A549 NSCLC orthotopic
Method: The purpose of the present study was to evaluate the in vivo efficacy of UNBS5162 on human A549 NSCLC orthotopic nude mice model. The endpoint in this experiment was the survival period of the tumor-bearing mice following treatment, as indicated.
The experiment comprised 6 groups of II mice, one group with mice receiving the vehicle only (Ct group) and 5 groups receiving the treatments as indicated in the Table 13. UNBS5162 was dosed i.v. at 10 mg/kg (in lactic acid vehicle). Taxol (Paclitaxel 6 mg/mL, Bristol-Myers Squibb) was dosed i.v. at 20 mg/kg.

PC-3 = assay: Quantitative videomicroscopy, PC-3; type: cell-based, human
Method: Use was made of computer-assisted phase-contrast microscopy (quantitative videomicroscopy) in the attempt to elucidate an overall picture of UNBS5162's mechanism of action. […] In addition, 10 μM UNBS5162 caused a marked enlargement in PC-3 cells by the end of the 6-day treatment period compared with the start of the experiment.

[2] = test system: human PC-3 orthotopic xenografts
Method: Orthotopic xenografts were obtained by injecting 2.5×10^6 human PC-3 or DU-145 cells into the prostate of 6-week-old male nu/nu mice (n=9 animals per treatment group). All grafts were performed under anesthesia [saline/Rompun (Bayer, Leverkusen, Germany)/Imalgene (Merial, Lyons, France); 5:1:1 by volume]. The end point in these orthotopic experiments was the survival period of the tumor-bearing mice after the administration of UNBS3157, UNBS5162, or reference anticancer agents (taxol, mitoxantrone, and amonafide). However, for ethical reasons, animals were killed when 20% of body weight had been lost compared to that determined at the time of tumor grafting. All animals were weighed three times a week. […] In the case of UNBS5162 experiments in the PC-3 model, after the sacrifice of animals, tumors were removed from both drug-treated [10 mg/kg, intravenous (i.v.)] and vehicle-treated mice, fixed in buffered formalin, embedded in paraffin, and 5-μm-thick sections taken. These histologic slides were then stained with hematoxylin and eosin for blood vessel counts.

[3] = test system: ets homologous factor (EHF); assay: EHF mRNA by quantitative RT-PCR, DU-145; type: cell-based, human
Method: Reverse transcription reactions were carried out in a thermal cycler (Thermocycler; Westburg, Leusden, The Netherlands). The purification of the cDNAs produced was undertaken using the High Pure PCR Product Purification Kit (Roche Diagnostics, Mannheim, Germany) in accordance with the manufacturer's instructions. Quantitative PCR reactions were performed with 50 ng of purified cDNA in a LightCycler thermocycler instrument (Roche Diagnostics) using LCFastart DNA Master SYBR Green 1 (Roche Diagnostics). After amplification, data analysis was carried out by means of the “Fit points” algorithm of the LightCycler quantification software. A standard curve enabled cDNA quantification of samples to be effected. The primers used were provided by Invitrogen and selected using the HYBSIMULATOR software (Advanced Gene Computing Technology, Irvine, Calif.). The primers used were as follows: ets homologous factor (EHF): forward: 5′-[…]-3′; reverse: 5′-CGAACTCTTGGAAAGGGA-3′; E2F1: forward: 5′-[…]-3′; reverse: 5′-GGATGTGGTTCTTGGACTT-3′.

BFU-E = assay: HALO hematotoxicity assay, mouse BFU-E; type: cell-based; details: 5 days culture, iATP
Method: Investigation of the hematotoxic potential of UNBS5162 was undertaken by HemoGenix (Colorado Springs, Colo.). The effects of UNBS5162 on stem and progenitor cell populations from murine and human bone marrow were assessed using HALO (Hematopoietic/Hematotoxicity Assay through Luminescence Output) technology. Stem and hematopoietic progenitor cell populations were isolated from mouse and human bone marrow samples, plated at a concentration of 1.0×10^4 cells/well and cultured for 5 and 7 days, respectively, in the presence of growth factors and increasing concentrations of UNBS5162 ranging from 0.5 nM to 50 μM. The proliferative or growth potential of cell populations was determined from intracellular ATP (iATP) concentrations and a luciferin/luciferase bioluminescence signal detection system. All samples were assayed in eight replicates. The results are presented as estimated inhibitory concentration (IC) values.

## CN(C)CCN1C(=O)c2cccc3cc(NC(N)=O)cc(c23)C1=O [UNBS5162, N-{2-[2-(dimethylamino)ethyl]-1,3-dioxo-2,3-dihydro-1H-benzo[de]isoquinolin-5-yl}urea]
[1]; UNBS5162 10 mg/kg i.v. in combination with Taxol 20 mg/kg i.v.
  survival of A549 NSCLC xenograft-bearing mice: significantly increased the survival
[1]; UNBS5162 i.v. 10 mg/kg (3i × 6w)
  T/C (%): 102%
PC-3; 1 μM
  cell dynamics (videomicroscopy): induced no detectable changes
PC-3; 10 μM, six days of observation
  cell population development (videomicroscopy): prevented PC-3 cell population development
[2]; PC-3 orthotopic model, 10 mg/kg i.v.
  angiogenesis in tumors (histopathology, blood vessel counts): anti-angiogenic properties in vivo
[2]; PC-3 orthotopic model, 10 mg/kg i.v. three times a week for 6 consecutive weeks
  therapeutic benefit (survival): therapeutic benefits that were similar to repeat i.v. administration (once a week for 6 consecutive weeks) of 20-mg/kg taxol
[2]; PC-3 orthotopic model, UNBS5162 10 mg/kg i.v. at the same time as taxol 20 mg/kg i.v.
  therapeutic benefit (survival) in combination: significantly (P<0.01) increased the therapeutic benefit contributed by taxol alone
[2]; PC-3 orthotopic model, UNBS5162 before or after taxol
  therapeutic benefit (survival) in combination: did not modify the therapeutic benefit contributed by taxol alone
[2]; mouse, in vivo
  toxicity of combined treatment (mouse weight, behavior): did not contribute higher toxicity
[3]; 1 μM
  EHF mRNA expression: markedly decreased EHF mRNA expression in a transient manner
[3]; 10 μM, 72 hours after treatment
  EHF mRNA levels: marked sustained decrease in EHF mRNA levels
BFU-E; 120 h
  IC50: 5.53 µM
  IC90: 9.11 µM
BFU-E
  IC75: 7.03 µM
